Data on seven molecules can be found in ChEMBL document CHEMBL1201862, “PubChem BioAssay data set” (2004).

The source made the active and inactive calls. Where only a bound is given, the exact number is not on record here.

Test [1] concerns the target Induced myeloid leukemia cell differentiation protein Mcl-1 (Homo sapiens, UniProt Q07820). In kind it is functional.
Test [2] has as its target T1, Mannose-6-phosphate isomerase (Homo sapiens, UniProt P34949).
T1 sequence (P34949 whole entry): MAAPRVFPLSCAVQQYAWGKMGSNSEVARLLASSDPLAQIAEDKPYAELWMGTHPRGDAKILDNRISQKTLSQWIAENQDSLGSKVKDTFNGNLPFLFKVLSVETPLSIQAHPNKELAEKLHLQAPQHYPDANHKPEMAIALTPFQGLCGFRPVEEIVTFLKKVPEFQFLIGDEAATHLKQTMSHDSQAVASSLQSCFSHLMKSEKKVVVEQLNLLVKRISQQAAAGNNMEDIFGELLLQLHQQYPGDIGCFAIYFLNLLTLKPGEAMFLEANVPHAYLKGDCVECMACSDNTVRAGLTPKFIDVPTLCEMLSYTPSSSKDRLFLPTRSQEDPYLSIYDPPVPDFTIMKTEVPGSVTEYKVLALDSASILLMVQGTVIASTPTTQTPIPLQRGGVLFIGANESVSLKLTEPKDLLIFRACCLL
Briefly: human PMI inhibitors, high substrate, primary screen, biochemical, fluorescence intensity, high mannose 6-phosphate (AID 1220).

Another test is described as follows: cells. Format: functional.
Test [3] in a line: HEK293T cytotoxicity, dose response, cytotoxicity control for miR-122 modulator project, cell-based, inhibitor set, cherry-pick, set 2 (AID 720697). In kind it is functional.
Test [4] has as its target T2, 1-phosphatidylinositol 4,5-bisphosphate phosphodiesterase gamma-1 (Homo sapiens, UniProt P19174).
T2 sequence (P19174 whole entry): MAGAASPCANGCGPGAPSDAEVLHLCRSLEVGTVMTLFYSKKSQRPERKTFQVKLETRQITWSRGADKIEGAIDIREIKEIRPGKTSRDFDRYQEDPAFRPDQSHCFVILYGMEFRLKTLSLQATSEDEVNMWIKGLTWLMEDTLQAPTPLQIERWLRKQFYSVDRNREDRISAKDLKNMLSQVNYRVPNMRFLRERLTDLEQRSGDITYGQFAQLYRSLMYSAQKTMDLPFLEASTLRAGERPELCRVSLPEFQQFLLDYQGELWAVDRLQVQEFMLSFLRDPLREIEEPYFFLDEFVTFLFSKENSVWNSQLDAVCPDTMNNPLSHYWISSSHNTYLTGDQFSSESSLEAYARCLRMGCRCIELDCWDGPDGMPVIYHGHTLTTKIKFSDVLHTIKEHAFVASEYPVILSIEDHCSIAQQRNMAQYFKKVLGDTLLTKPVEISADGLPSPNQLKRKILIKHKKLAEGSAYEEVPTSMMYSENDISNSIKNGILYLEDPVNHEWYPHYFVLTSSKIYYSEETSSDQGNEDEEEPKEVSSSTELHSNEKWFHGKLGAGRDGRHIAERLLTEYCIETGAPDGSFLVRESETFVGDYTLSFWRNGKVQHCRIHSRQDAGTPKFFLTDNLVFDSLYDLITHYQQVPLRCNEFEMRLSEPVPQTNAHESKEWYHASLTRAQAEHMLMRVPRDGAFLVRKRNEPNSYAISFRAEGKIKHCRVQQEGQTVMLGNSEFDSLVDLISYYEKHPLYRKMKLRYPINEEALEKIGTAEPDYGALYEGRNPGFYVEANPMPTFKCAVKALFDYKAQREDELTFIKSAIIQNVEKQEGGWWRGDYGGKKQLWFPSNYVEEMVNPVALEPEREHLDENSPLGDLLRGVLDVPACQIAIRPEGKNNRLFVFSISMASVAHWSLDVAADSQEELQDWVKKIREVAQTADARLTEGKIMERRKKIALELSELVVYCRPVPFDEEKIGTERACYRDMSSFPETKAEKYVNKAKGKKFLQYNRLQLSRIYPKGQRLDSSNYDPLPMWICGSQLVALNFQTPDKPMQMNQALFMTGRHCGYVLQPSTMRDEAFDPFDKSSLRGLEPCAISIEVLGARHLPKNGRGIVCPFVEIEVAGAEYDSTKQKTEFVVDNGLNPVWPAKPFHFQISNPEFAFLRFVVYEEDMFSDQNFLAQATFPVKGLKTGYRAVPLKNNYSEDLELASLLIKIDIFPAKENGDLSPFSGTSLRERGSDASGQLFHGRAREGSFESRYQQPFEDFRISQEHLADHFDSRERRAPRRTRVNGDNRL
Briefly: Counterscreen for inhibitors of phospholipase C isozymes (PLC-B3): Fluorescence-based biochemical high throughput dose response assay to identify inhibitors of phospholipase C isozymes (PLC-gamma1).

Test [5] has as its target T3, 1-phosphatidylinositol 4,5-bisphosphate phosphodiesterase beta-3 (Homo sapiens, UniProt Q01970).
T3 sequence (Q01970 whole entry): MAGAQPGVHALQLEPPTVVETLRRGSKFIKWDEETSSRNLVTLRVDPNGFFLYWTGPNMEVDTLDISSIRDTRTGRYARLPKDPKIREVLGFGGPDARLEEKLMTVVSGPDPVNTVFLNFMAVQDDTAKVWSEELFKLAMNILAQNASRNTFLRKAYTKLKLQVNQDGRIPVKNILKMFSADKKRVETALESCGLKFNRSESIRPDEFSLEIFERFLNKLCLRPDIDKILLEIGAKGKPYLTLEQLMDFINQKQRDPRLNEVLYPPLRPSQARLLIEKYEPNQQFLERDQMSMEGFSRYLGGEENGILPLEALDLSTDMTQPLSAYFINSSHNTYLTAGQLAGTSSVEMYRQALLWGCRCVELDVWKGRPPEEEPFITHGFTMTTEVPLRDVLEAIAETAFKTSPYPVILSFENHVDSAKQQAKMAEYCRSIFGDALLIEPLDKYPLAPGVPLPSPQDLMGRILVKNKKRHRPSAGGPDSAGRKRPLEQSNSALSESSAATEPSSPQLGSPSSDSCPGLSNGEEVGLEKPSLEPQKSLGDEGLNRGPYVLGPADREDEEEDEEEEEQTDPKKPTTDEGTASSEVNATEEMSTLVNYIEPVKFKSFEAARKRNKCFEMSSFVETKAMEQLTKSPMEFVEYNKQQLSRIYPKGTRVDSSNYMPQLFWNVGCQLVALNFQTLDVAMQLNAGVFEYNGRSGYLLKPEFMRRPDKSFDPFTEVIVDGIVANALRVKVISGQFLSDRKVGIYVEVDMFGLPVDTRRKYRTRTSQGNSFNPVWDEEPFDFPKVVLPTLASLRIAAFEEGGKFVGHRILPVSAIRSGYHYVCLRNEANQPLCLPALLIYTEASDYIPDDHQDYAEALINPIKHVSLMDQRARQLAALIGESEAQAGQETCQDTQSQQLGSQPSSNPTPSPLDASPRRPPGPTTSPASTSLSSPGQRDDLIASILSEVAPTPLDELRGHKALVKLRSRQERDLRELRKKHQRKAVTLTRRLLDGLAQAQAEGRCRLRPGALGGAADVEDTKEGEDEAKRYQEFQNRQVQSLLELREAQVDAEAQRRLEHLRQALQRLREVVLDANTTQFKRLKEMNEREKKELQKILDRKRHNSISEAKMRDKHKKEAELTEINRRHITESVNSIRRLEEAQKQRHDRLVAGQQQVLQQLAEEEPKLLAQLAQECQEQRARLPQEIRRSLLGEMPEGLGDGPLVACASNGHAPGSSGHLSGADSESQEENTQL
The test is described as follows: Fluorescence-based biochemical high throughput dose response assay to identify inhibitors of phospholipase C isozymes (PLC-B3).

Another test concerns the target Cytochrome P450 2D6 (Homo sapiens, UniProt P10635).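 Note: CYP2D6 member of a cytochrome P450 panel assay.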
The next test concerns the target Troponin, cardiac muscle (Homo sapiens, UniProt P19429+P45379+P63316). Briefly: inhibitors of cardiac thin filament calcium sensitivity, dose response, biochemical, fluorescence, cardiac regulated thin filaments, triplicate IC50 (AID 504742). In kind it is protein-complex assay.
Test [6] has as its target T4, Small ubiquitin-related modifier 1 (Homo sapiens, UniProt P63165). The test is described as follows: inhibitors of SUMO1 peptide binding, dose response, biochemical, fluorescence polarization, uHTS hits (AID 624382). The following applies: read-out: IC50_Mean. In kind it is functional.
Test [7] concerns the target T5, Long-chain-fatty-acid--AMP ligase FadD28 (Mycobacterium tuberculosis, UniProt P9WQ59).
T5 sequence (P9WQ59 whole entry): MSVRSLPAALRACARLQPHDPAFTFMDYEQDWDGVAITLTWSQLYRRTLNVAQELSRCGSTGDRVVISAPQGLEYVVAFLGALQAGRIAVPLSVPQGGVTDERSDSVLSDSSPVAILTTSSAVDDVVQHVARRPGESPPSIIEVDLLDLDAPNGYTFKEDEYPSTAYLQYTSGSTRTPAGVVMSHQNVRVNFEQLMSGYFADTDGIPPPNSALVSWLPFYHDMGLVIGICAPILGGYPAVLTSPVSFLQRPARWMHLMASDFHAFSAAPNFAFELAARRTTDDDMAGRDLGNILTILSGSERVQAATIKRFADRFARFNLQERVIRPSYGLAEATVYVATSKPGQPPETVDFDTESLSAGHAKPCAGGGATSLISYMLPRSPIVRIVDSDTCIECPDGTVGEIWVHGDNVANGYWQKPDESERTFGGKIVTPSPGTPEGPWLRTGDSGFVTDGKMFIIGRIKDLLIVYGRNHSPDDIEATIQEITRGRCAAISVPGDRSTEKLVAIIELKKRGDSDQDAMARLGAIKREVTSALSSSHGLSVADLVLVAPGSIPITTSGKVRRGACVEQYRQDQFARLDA
Briefly: Fluorescence polarization aasay to screen for inhibitors that compete for the binding of FadD28 to a bisubstrate Measured in Biochemical System Using Plate Reader - 2147-01_Inhibitor_Dose_CherryPick_Activity. In kind it is functional, Mycobacterium tuberculosis H37Rv.

The target in test [8] is T4, Small ubiquitin-related modifier 1. Briefly: inhibitors of SUMO1 partner interactions, dose response, biochemical, FRET (AID 624383). Format: functional. The following applies: read-out: IC50_Mean.
The target of test [9] is T6, Rac GTPase-activating protein 1 (Homo sapiens, UniProt Q9H0H5).
T6 sequence (Q9H0H5 whole entry): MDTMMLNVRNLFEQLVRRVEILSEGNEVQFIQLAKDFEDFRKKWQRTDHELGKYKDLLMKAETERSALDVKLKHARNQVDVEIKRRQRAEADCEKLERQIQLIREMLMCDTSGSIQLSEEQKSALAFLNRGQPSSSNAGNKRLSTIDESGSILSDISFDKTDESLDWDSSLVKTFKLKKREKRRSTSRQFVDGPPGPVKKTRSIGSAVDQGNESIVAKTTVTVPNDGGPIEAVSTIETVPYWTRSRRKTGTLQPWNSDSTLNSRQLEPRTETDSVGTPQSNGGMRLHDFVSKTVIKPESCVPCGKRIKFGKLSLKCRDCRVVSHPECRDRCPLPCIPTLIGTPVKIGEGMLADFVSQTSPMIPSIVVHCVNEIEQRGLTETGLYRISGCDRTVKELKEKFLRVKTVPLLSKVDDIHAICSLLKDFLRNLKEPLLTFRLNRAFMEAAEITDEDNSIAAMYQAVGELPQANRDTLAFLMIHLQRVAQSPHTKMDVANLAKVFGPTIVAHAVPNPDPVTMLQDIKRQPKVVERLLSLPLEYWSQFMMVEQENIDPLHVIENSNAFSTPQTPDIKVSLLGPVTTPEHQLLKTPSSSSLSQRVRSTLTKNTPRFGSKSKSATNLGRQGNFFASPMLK
Briefly: MgcRacGAP GTPase-activating activity inhibitors, confirmation, biochemical, ADP Hunter fluorescence, primary and confirmatory (AID 624330). Format: functional.

The next test has as its target T7, Caspase-6 (Homo sapiens, UniProt P55212).
T7 sequence (P55212 whole entry): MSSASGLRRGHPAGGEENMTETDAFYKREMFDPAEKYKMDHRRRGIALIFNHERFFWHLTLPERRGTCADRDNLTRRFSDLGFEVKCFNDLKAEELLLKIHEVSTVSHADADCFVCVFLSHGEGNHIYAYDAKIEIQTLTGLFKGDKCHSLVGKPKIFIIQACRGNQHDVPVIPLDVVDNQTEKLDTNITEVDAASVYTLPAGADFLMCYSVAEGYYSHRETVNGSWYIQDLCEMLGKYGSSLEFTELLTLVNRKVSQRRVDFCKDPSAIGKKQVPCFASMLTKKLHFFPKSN
Briefly: human caspase-6 inhibitors, dose response, biochemical, VEID-R110 fluorescence, cherry-pick (AID 720632).

Test [10] can be described thus: A549 cell cytotoxicity, dose response, cytotoxicity control, plate reader, cherry-pick, antagonist series (AID 743412). In kind it is functional, cell-based.
A short description of test [11]: HepG2 cell cytotoxicity, dose response, cytotoxicity control, plate reader, cherry-pick, antagonist series (AID 743416). In kind it is functional, cell-based.
Test [12] is described as follows: LGR2 antagonists, dose response, cell-based, HEK293, CRE-luciferase reporter, cherry pick, set 2 (AID 743343).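 Note: transfected cells were stimulated with diluted bursicon conditioned medium after compound addition.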 Format: functional.
The nature of test [13]: MC4R antagonists, dose response, counter-screen for LGR2 antagonist project, cell-based, plate reader, cherry pick (AID 743444).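 Note: transfected HEK 293 cells stimulated with alpha-MSH peptide; potency of inhibitors of the alpha-MSH evoked signal.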 Format: functional.

T4 sequence (P63165 whole entry): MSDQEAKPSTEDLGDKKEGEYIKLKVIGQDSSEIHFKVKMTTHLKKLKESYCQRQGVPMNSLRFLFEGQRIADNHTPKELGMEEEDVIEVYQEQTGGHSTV
Sequence of Cytochrome P450 2D6 (P10635 whole entry): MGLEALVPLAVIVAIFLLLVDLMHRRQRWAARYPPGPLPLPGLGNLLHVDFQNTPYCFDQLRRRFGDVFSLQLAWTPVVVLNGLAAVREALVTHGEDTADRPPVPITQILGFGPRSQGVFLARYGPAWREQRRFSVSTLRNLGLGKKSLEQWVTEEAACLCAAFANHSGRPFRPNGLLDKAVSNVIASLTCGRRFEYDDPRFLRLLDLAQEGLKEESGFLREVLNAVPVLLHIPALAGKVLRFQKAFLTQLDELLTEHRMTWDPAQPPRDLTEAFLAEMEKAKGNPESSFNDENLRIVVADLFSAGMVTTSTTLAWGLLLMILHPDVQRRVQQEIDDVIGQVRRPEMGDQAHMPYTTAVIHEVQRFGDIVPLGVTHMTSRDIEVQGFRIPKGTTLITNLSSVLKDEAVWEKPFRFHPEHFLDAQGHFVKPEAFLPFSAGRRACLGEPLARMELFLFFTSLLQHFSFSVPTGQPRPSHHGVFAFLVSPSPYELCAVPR
Sequence of Induced myeloid leukemia cell differentiation protein Mcl-1 (Q07820 whole entry): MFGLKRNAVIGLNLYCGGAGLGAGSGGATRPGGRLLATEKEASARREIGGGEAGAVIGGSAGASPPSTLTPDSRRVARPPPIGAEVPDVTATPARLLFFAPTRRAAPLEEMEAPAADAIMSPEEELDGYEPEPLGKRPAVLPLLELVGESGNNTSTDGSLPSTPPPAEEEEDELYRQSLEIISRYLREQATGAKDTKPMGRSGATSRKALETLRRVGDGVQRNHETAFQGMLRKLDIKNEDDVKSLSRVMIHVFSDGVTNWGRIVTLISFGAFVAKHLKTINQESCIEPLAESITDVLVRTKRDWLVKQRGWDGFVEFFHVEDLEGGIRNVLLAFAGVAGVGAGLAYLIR

`COc1ccc(N2CCC(CNS(=O)(=O)c3cccc(C(F)(F)F)c3)C2)cc1` (centres undefined): the IC50 in test [1] was > 54 µM (active); in [2] it was > 50 µM (not active).

Take `O=C(COc1cccc2ccccc12)Nc1nc2ccccc2[nH]1`: the IC50 in “cells” is 6.2 µM (active). Besides, in [3], the half-maximal activity concentration (AC50) was 8.06 µM (active).

Consider `O=C(Cc1cccs1)N1CCC(c2nc3c(nnn3Cc3ccccc3Cl)c(=O)[nH]2)CC1`, for which the IC50 in [4] and in test [5] was > 122 µM (inactive) each time. Further, the concentration at half-maximal activity (AC50) on Cytochrome P450 2D6 is 14.1 µM (inconclusive).

In the case of `COC(=O)COc1nc(C)c2c(c1C#N)CC(C)(C)OC2`, the IC50 in test [4] and in [5] was > 123 µM (inactive) throughout.

As for `O=C(O)c1cc(O)c2c(c1)[C@@H]([C@H]1c3cc(C(=O)O)cc(O)c3C(=O)c3c(O[C@@H]4O[C@H](CO)[C@@H](O)[C@H](O)[C@H]4O)cccc31)c1cccc(OC3O[C@H](CO)[C@@H](O)[C@H](O)[C@H]3O)c1C2=O` (some centres undefined), the IC50 is 1.82 µM (active) on Troponin, cardiac muscle; 30.6 µM (inactive) in test [6]; 1.06 µM (active) in test [8]; 12 µM (active) in test [9]. In test [7], the AC50 is > 100 µM (inactive).

On to `O=[N+]([O-])c1cccc(NS(=O)(=O)c2ccc(-c3ccc(O)nn3)s2)c1`, for which the half-maximal activity concentration (AC50) at Caspase-6 was 40.3 µM (active).

On to `COc1ccc(C(=O)Nc2ccc3ncccc3c2)cc1`, for which the half-maximal activity concentration (AC50) in [10] is 37.8 µM (active); in test [11], 47 µM (active); in test [12], 5.45 µM (active); in [13], 7.29 µM (active).
